Reference: PubChem BioAssay AID1259408 (Genetic Toxicology Data Bank (GENE-TOX), 2018)
Active and inactive are the calls of the source. How the calls were made is not given here.

Test system: GENE-TOX genotoxicity assays, various organisms and cells
Experiment: GENE-TOX mutagenicity studies
Details: for call: Assay Type: In vivo carcinogenicity studies
[1] = Species/Cell Type: Bacillus subtilis (H17 vs M45), Assay Type: Rec-assay, spot test, DNA effects (bacterial DNA repair), Assay Code: REWT, Evaluation Type: Evaluation A (Pre-1980)
[2] = Species/Cell Type: Syrian hamster embryo (SA7/SHE) cells, Assay Type: Cell transformation, viral enhanced, Assay Code: CT7+, Evaluation Type: Evaluation A (Pre-1980)
[3] = Species/Cell Type: Escherichia coli polA (W3119 vs P3478), Assay Type: Rec-assay, DNA effects (bacterial DNA repair), Assay Code: RE1T, Evaluation Type: Evaluation A (Pre-1980)
[4] = Species/Cell Type: Syrian hamster embryo (SHE) cells, Assay Type: Cell transformation, clonal assay, Assay Code: CTC+, Evaluation Type: Evaluation A (Pre-1980)
[5] = Species/Cell Type: Escherichia coli polA (W3119 vs P3478), Assay Type: Rec-assay, DNA effects (bacterial DNA repair), Assay Code: RE1+, Evaluation Type: Evaluation A (Pre-1980)
[6] = Species/Cell Type: Saccharomyces cerevisiae, Assay Type: Mitotic recombination or gene conversion, Assay Code: YEH+, Evaluation Type: Evaluation A (Pre-1980)
[7] = Species/Cell Type: Salmonella typhimurium (one or more of the five standard strains: TA98, TA100, TA1535, TA1537, and TA1538), Assay Type: Histidine reverse gene mutation, Ames assay, Assay Code: SAL+, Evaluation Type: Evaluation A (Pre-1980)
[8] = Species/Cell Type: Schizosaccharomyces pombe, Assay Type: Reverse gene mutation, Assay Code: YEZ+, Evaluation Type: Evaluation A (Pre-1980)
[9] = Species/Cell Type: Drosophila melanogaster, Assay Type: Sex-linked recessive lethal gene mutation, Assay Code: SRLT, Evaluation Type: Evaluation A (Pre-1980)
[10] = Species/Cell Type: Rodents, Sex: Male, Assay Type: Dominant lethal test, Assay Code: DLT-, Evaluation Type: Evaluation A (Pre-1980)
[11] = Species/Cell Type: Salmonella typhimurium (one or more of the five standard strains: TA98, TA100, TA1535, TA1537, and TA1538), Assay Type: Histidine reverse gene mutation, Ames assay, Assay Code: SAL+*, Activation: With metabolic activation, Evaluation Type: Evaluation A (Pre-1980)
[12] = Species/Cell Type: Salmonella typhimurium, Assay Type: Forward and reverse gene mutation, host-mediated assay, Assay Code: HMA-, Evaluation Type: Evaluation A (Pre-1980)
[13] = Species/Cell Type: Human diploid fibroblasts, Assay Type: Unscheduled DNA synthesis (UDS) in vitro, DNA effects, Assay Code: UDH-, Evaluation Type: Evaluation A (Pre-1980)
[14] = Species/Cell Type: Salmonella typhimurium (one or more of the five standard strains: TA98, TA100, TA1535, TA1537, and TA1538), Assay Type: Histidine reverse gene mutation, Ames assay, Assay Code: SAL-, Evaluation Type: Evaluation A (Pre-1980)
[15] = Species/Cell Type: Nonhuman, Assay Code: CCG+L, Evaluation Type: Evaluation A (Pre-1980)

CCN(Cc1ccccc1)c1ccc(C(=C2C=CC(=[N+](CC)Cc3ccccc3)C=C2)c2ccc(S(=O)(=O)O)cc2S(=O)(=O)[O-])cc1
mutagenic call [1]: no conclusion

O=Cc1ccc(C(=O)O)cc1
mutagenic call [2]: active; positive

OC(c1ccccc1)C(c1ccccc1)c1ccccc1 (stereo not given)
mutagenic call [3]: no conclusion

COC(=O)c1ccc(C(=O)OC)cc1
call (Species/Cell Type: Nonhuman, Assay Code: CCG-, Evaluation Type: Evaluation A (Pre-1980)): inactive; negative | mutagenic call (Species/Cell Type: Syrian hamster embryo (SA7/SHE) cells, Assay Type: Cell transformation, viral enhanced, Assay Code: CT7-, Evaluation Type: Evaluation A (Pre-1980)): inactive; negative

O=[As](O)(O)O
mutagenic call (Species/Cell Type: Bacillus subtilis (H17 vs M45), Assay Type: Rec-assay, spot test, DNA effects (bacterial DNA repair), Assay Code: REW+, Evaluation Type: Evaluation A (Pre-1980)): active; positive | mutagenic call (Species/Cell Type: Human lymphocytes, Assay Type: Sister-chromatid exchange (SCE) in vitro, Assay Code: SCL+, Evaluation Type: Evaluation B (Post-1980)): active; positive | mutagenic call (Species/Cell Type: Human, Assay Type: Sister-chromatid exchange (SCE) in vitro, Assay Code: SC1+, Evaluation Type: Evaluation B (Post-1980)): active; positive | mutagenic call (Species/Cell Type: Nonhuman, Assay Type: Sister-chromatid exchange (SCE) in vitro, Assay Code: SC2+, Evaluation Type: Evaluation B (Post-1980)): active; positive | mutagenic call [4]: active; positive

O=S1(=O)CCCCO1
mutagenic call [5]: active; positive | call (Species/Cell Type: Nonhuman, Assay Code: CCGT, Evaluation Type: Evaluation A (Pre-1980)): no conclusion | mutagenic call [6]: active; positive | mutagenic call [7]: active; positive | mutagenic call (Species/Cell Type: Salmonella typhimurium, Assay Type: Forward and reverse gene mutation, host-mediated assay, Assay Code: HMA+, Evaluation Type: Evaluation A (Pre-1980)): active; positive | mutagenic call [8]: active; positive | mutagenic call [4]: active; positive

CNc1ccc(C(=C2C=CC(=[N+](C)C)C=C2)c2ccc(N(C)C)cc2)cc1
mutagenic call (Species/Cell Type: Saccharomyces cerevisiae, Assay Type: Reverse gene mutation, Assay Code: YER-, Evaluation Type: Evaluation A (Pre-1980)): inactive; negative

CCCC(=O)C1c2cccc(O)c2C(=O)c2c(O)cccc21
mutagenic call (Species/Cell Type: Mammalian polychromatic erythrocytes, Assay Type: Micronucleus test, chromosome aberrations, Assay Code: MNT-, Evaluation Type: Evaluation B (Post-1980)): inactive; negative

Nc1ccc(S(=O)(=O)O)c2ccccc12
mutagenic call (Species/Cell Type: Salmonella typhimurium (one or more of the five standard strains: TA98, TA100, TA1535, TA1537, and TA1538), Assay Type: Histidine reverse gene mutation, Ames assay, Assay Code: SALT, Evaluation Type: Evaluation A (Pre-1980)): no conclusion

OCC1=CCN2CC[C@H](O)[C@@H]12
mutagenic call [9]: no conclusion

[Cl][Ti]([Cl])[Cl]
mutagenic call (Species/Cell Type: Nonhuman, Assay Type: Sister-chromatid exchange (SCE) in vitro, Assay Code: SC2-, Evaluation Type: Evaluation B (Post-1980)): inactive; negative

C1O[C@@H]1[C@H]1CO1
mutagenic call (Species/Cell Type: Allium cepa, Assay Type: Chromosome aberrations, Assay Code: ALC+D, Dose Response: With dose response, Evaluation Type: Evaluation A (Pre-1980)): active; positive | mutagenic call (Species/Cell Type: Arabidopsis species, Assay Type: Gene mutation, Assay Code: ARM+, Evaluation Type: Evaluation A (Pre-1980)): active; positive | mutagenic call [8]: active; positive | mutagenic call (Species/Cell Type: Zea mays (corn), Assay Type: Gene mutation, Assay Code: ZEM+, Evaluation Type: Evaluation A (Pre-1980)): active; positive

OCCN1CCN(C2Cc3cc(Cl)ccc3Sc3ccccc32)CC1 (stereo not given)
mutagenic call [10]: inactive; negative

Nc1cccc2cc3ccccc3cc12
mutagenic call [3]: no conclusion | mutagenic call (Species/Cell Type: Fischer rat embryo (RLV/1706) cells, Assay Type: Cell transformation, viral enhanced, Assay Code: CTR-, Evaluation Type: Evaluation A (Pre-1980)): inactive; negative | mutagenic call (Species/Cell Type: Saccharomyces cerevisiae, Assay Type: Mitotic recombination or gene conversion, Assay Code: YEH+/-*, Activation: With metabolic activation, Evaluation Type: Evaluation A (Pre-1980)): inactive; positive without activation, negative with activation | mutagenic call [11]: active; positive | mutagenic call [12]: inactive; negative | mutagenic call (Species/Cell Type: Syrian hamster embryo (SHE) cells, Assay Type: Cell transformation, clonal assay, Assay Code: CTC-, Evaluation Type: Evaluation A (Pre-1980)): inactive; negative

CC(=O)Nc1nc(NC(C)=O)nc(-c2ccc([N+](=O)[O-])o2)n1
mutagenic call [7]: active; positive

CCOC(=O)N(CCOC(C)=O)N=O
mutagenic call [7]: active; positive

CC(=O)[O-].[Tl+]
mutagenic call [2]: active; positive

O=C1c2ccccc2C(=O)c2c(O[C@@H]3O[C@H](CO)[C@@H](O)[C@H](O)[C@H]3O)ccc(O)c21
mutagenic call [11]: active; positive

OC[C@@H](O)[C@@H](O)[C@H](O)[C@@H](O)CO
mutagenic call (Species/Cell Type: Drosophila melanogaster, Assay Type: Aneuploidy, whole sex chromosome loss, chromosome aberrations, Assay Code: DAC-M, Evaluation Type: Evaluation A (Pre-1980)): inactive; negative | mutagenic call [9]: no conclusion | mutagenic call [10]: inactive; negative

O=c1ccc2c(cc(O)c3c4ccccc4nnc23)o1
mutagenic call (Species/Cell Type: Mammalian polychromatic erythrocytes, Assay Type: Micronucleus test, chromosome aberrations, Assay Code: MNTT, Evaluation Type: Evaluation B (Post-1980)): no conclusion

COP(=O)(OC)O/C(C)=C/C(=O)OC(C)c1ccccc1 (stereo not given)
mutagenic call [1]: no conclusion | mutagenic call (Species/Cell Type: Escherichia coli WP2 UVRA, Assay Type: Tryptophan reverse gene mutation, Assay Code: WPU-*, Activation: With metabolic activation, Evaluation Type: Evaluation A (Pre-1980)): inactive; negative | mutagenic call [3]: no conclusion | mutagenic call [13]: inactive; negative | mutagenic call [6]: active; positive | mutagenic call [14]: inactive; negative

N=C1C=CC(=C(c2ccc(N)cc2)c2ccc(N)cc2)C=C1
mutagenic call [5]: active; positive | mutagenic call (Species/Cell Type: Fischer rat embryo (RLV/1706) cells, Assay Type: Cell transformation, viral enhanced, Assay Code: CTR+, Evaluation Type: Evaluation A (Pre-1980)): active; positive | mutagenic call (Species/Cell Type: Mouse (BALB/c-3T3) cells, Assay Type: Cell transformation, Assay Code: CTB+D, Dose Response: With dose response, Evaluation Type: Evaluation A (Pre-1980)): active; positive | call [15]: active; positive | mutagenic call (Species/Cell Type: Saccharomyces cerevisiae, Assay Type: Mitotic recombination or gene conversion, Assay Code: YEH-, Evaluation Type: Evaluation A (Pre-1980)): inactive; negative | mutagenic call [14]: inactive; negative | mutagenic call [12]: inactive; negative | mutagenic call (Species/Cell Type: Syrian hamster embryo (SHE) cells, Assay Type: Cell transformation, clonal assay, Assay Code: CTCT, Evaluation Type: Evaluation A (Pre-1980)): no conclusion

CCOC(=O)N(C)N=O
mutagenic call (Species/Cell Type: Arabidopsis species, Assay Type: Gene mutation, Assay Code: ARM+D, Dose Response: With dose response, Evaluation Type: Evaluation A (Pre-1980)): active; positive | mutagenic call (Species/Cell Type: Bacillus subtilis (H17 vs M45T), Assay Type: Rec-assay, spot test, DNA effects (bacterial DNA repair), Assay Code: REX+, Evaluation Type: Evaluation A (Pre-1980)): active; positive | mutagenic call (Species/Cell Type: Drosophila melanogaster, Assay Type: Sex-linked recessive lethal gene mutation, Assay Code: SRL+, Evaluation Type: Evaluation A (Pre-1980)): active; positive | mutagenic call (Species/Cell Type: Drosophila melanogaster, Sex: Male, Assay Type: Heritable translocation test, chromosome aberrations, Assay Code: DHTT, Evaluation Type: Evaluation A (Pre-1980)): no conclusion | mutagenic call [5]: active; positive | mutagenic call (Species/Cell Type: Hordeum vulgare (barley), Assay Type: Chromosome aberrations, Assay Code: HOC+D, Dose Response: With dose response, Evaluation Type: Evaluation A (Pre-1980)): active; positive | mutagenic call (Species/Cell Type: Hordeum vulgare (barley), Assay Type: Gene mutation, Assay Code: HOM+, Evaluation Type: Evaluation A (Pre-1980)): active; positive | call (Species/Cell Type: Nonhuman, Assay Code: CCG+, Evaluation Type: Evaluation A (Pre-1980)): active; positive | mutagenic call (Species/Cell Type: Saccharomyces cerevisiae, Assay Type: Forward gene mutation, Assay Code: YEF+, Evaluation Type: Evaluation A (Pre-1980)): active; positive | mutagenic call (Species/Cell Type: Saccharomyces cerevisiae, Assay Type: Mitotic recombination or gene conversion, Assay Code: YEC+, Evaluation Type: Evaluation A (Pre-1980)): active; positive | mutagenic call [6]: active; positive | mutagenic call [7]: active; positive | mutagenic call [8]: active; positive

CC(=O)Nc1ccc2c(ccc3ccccc32)c1
mutagenic call [13]: inactive; negative | call [15]: active; positive
